Values of other authors, collected in US20100197018A1, “USE OF SUBSTRATES AS PHARMACOLOGICAL CHAPERONES” (AMICUS THERAPEUTICS, INC., priority 2007, published 2010).
Like-named read-outs stand apart in the source and are kept apart here. Marks after values point to notes of the source that are not given here.

How the values were obtained:
[1] = biological target: T1, N-acetyl-glucosamine-6-sulfate sulfatase (6S) Form A (Homo sapiens, UniProt P15586); conditions: for Relative catalytic efficiency*: kcat./Km calculated relative to a value for GlcNAc6S = 1; for Km: read-out: Km; for pH optimum: Table 6
T1 sequence (P15586 37-552): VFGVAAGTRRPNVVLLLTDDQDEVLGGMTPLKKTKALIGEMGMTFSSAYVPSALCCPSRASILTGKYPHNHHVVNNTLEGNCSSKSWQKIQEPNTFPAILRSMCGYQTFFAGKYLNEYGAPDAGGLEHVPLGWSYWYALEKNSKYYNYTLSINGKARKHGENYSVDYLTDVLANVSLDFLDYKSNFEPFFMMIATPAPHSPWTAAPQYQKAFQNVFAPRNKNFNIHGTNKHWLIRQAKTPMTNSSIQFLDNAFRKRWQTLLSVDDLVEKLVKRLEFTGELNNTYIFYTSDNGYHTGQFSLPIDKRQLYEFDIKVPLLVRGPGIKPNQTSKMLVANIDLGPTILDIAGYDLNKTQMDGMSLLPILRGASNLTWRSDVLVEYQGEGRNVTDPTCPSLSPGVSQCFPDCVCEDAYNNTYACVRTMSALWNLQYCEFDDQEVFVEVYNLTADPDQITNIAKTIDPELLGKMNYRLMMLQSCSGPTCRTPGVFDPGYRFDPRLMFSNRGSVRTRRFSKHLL

[2] = biological target: T2, heparan-N-sulfatase (Homo sapiens, UniProt P51688); conditions: for Relative catalytic efficiency*: GlcNS = 1.00; for pH optimum of the enzyme for the substrate: purified enzyme
T2 sequence (P51688 21-502): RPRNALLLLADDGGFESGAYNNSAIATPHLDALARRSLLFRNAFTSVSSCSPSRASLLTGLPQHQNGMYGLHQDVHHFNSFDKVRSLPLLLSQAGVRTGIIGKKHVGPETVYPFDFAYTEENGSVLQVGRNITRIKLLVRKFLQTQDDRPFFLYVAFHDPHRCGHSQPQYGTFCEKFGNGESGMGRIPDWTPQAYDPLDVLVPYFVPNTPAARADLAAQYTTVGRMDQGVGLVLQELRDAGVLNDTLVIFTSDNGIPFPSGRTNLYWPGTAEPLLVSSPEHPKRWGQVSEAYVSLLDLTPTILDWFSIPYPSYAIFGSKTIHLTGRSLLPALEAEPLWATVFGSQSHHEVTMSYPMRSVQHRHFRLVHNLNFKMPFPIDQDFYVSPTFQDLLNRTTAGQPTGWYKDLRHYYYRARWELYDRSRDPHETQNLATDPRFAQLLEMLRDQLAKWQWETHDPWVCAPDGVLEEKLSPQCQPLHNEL

[3] = biological target: T3, N-acetyl-glucosamine-6-sulfate sulfatase (6S) Form B (Homo sapiens, UniProt P15586); conditions: read-out: Km
T3 sequence (P15586 37-552): T1 sequence (P15586 37-552)

[4] = biological target: T4, iduronate-2-sulfatase (Homo sapiens, UniProt P22304); conditions: for pH optimum: Table 4, cells marked * (not optimum pH) left out; for Relative catalytic efficiency: IdoA2S-anM = 1.0
T4 sequence (P22304 34-550): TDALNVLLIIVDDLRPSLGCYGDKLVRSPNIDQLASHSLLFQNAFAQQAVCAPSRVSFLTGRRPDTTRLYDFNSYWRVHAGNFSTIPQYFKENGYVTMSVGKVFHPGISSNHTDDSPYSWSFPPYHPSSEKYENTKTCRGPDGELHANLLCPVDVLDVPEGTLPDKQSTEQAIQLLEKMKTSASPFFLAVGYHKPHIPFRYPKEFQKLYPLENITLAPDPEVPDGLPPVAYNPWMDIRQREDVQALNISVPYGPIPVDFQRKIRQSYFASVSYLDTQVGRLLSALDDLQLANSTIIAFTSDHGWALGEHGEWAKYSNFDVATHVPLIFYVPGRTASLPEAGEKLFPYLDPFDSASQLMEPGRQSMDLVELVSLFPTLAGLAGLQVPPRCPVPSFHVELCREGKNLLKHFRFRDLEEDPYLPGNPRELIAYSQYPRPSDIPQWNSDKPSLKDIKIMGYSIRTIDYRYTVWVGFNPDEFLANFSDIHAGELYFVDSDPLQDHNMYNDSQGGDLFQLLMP

[5] = 37°, pH: GlcNS-Ido 6.7, GlcNS-Ido2S 5.5, GlcNS-IdOA 5.6, GlcNS-IdoA-GlcNS-IdOA 5.6, GlcNS-IdoA2S-anM6S 3.6, GlcNS6S-Ido 4.2, GlcNS6S-Ido2S 3.8, GlcNS6S-IdOA 4.2
[6] = rows whose other values are marked †
[7] = values marked † (60° C. per footnote), pH: GlcNS 5.6, GalNS 5.6, GlcNS-IdOA 5.4
[8] = 37°, pH 5.6 (second line of the substrate)
[9] = at the optimum pH of the substrate analog
[10] = not optimum pH (*): IdoA2S-anM6S at pH 5.0, IdoA2S-anT4S at pH 4.0

O=C[C@H](OS(=O)(=O)O)[C@@H](O)[C@H](O[C@H]1O[C@H](COS(=O)(=O)O)[C@@H](O)[C@H](O)[C@H]1NS(=O)(=O)O)[C@@H](O)CO [GlcNS6S-Ido2S, O-(α-2-sulphaminoglucosamine 6-sulphate)-(1-4)-L-idose 2-sulphate]
kcat. (turnover number) ([1]; Form A): 0.201 mol/min per mol of enzyme | Relative catalytic efficiency* ([1]; Form A): 3.8 | Km ([1]; Form A): 2.3 µM | pH optimum [1]: 4.2 | Relative catalytic efficiency* ([2]; 37°, pH (optimum)): 388 | Km [2, 5]: 4.1 µM | kcat. (turnover number) [2, 5]: 3.333 mol/min per mol of enzyme

2-sulphoamino-glucosamine [GlcNS]
kcat. (turnover number), value in parentheses ([2]; in parentheses under the † value, parentheses not explained, pH 5.6): (0.0005) mol/min per mol of enzyme | pH optimum of the enzyme for the substrate [2]: 5.6 | Relative catalytic efficiency* [2, 6]: 1.00 | Km [2, 7]: 0.7 µM | kcat. (turnover number) [2, 7]: 0.0021† mol/min per mol of enzyme

O=C(O)[C@@H]1O[C@@H](O[C@H]2[C@H](O)[C@@H](CO)O[C@@H]2COS(=O)(=O)O)[C@H](OS(=O)(=O)O)[C@@H](O)[C@@H]1O[C@H]1O[C@H](CO)[C@@H](O)[C@H](O)[C@H]1NS(=O)(=O)O [GlcNS-IdoA2S-anM6S, O-α-2-sulphaminoglucosamine)-(1-4) O-L-(α-iduronic-acid 2-sulphate)-(1-4)-O-D-(2,5)-anhydro-mannitol 6-sulphate]
Km [2, 8]: 5.3 µM | kcat. (turnover number) [2, 8]: 117 mol/min per mol of enzyme | Relative catalytic efficiency* [2, 8]: 30237 | Relative catalytic efficiency* ([2]; 37°, pH (optimum)): 67193 | Km [2, 5]: 3.8 µM | kcat. (turnover number) [2, 5]: 186 mol/min per mol of enzyme

O=C[C@H](O)[C@@H](O)[C@H](O)[C@H](O)COS(=O)(=O)O [Glc6S, glucose 6-sulfate]
Kcat [1]: 0.585 mol/min/mol enzyme | pH optimum of 6S activity [1]: 5.7 | kcat. (turnover number) ([1]; Form A): 0.585 mol/min per mol of enzyme | Relative catalytic efficiency* ([1]; Form A): 0.4 | Km ([1]; Form A): 62.5 µM | pH optimum [1]: 5.7 | Ratio of catalytic efficiencies: form A/form B ([1]; form A over form B): 1.3 | Km [1]: 62.5 µM | Km [3]: 62.5 µM

O=C[C@H](O)[C@@H](O)[C@H](O[C@H]1O[C@H](CO)[C@@H](O)[C@H](O)[C@H]1NS(=O)(=O)O)[C@@H](O)CO [GlcNS-Ido, O-(α-2-sulphaminoglucosamine)-(1-4)-L-idose)]
Relative catalytic efficiency* ([2]; 37°, pH (optimum)): 7.40 | Km [2, 5]: 7.7 µM | kcat. (turnover number) [2, 5]: 0.0414 mol/min per mol of enzyme | pH optimum of the enzyme for the substrate [2]: 6.7

O=C(O)[C@H](O)[C@@H](O[C@H]1O[C@H](CO)[C@@H](O[C@@H]2O[C@@H](C(=O)O)[C@@H](O[C@H]3O[C@H](CO)[C@@H](O)[C@H](O)[C@H]3NS(=O)(=O)O)[C@H](O)[C@H]2O)[C@H](O)[C@H]1NS(=O)(=O)O)[C@H](O)[C@@H](O)CO [GlcNS-IdoA-GlcNS-IdOA, O-(α-2-sulphaminoglucosamine)-(1-4)-L-O-(α-iduronic acid)-(1-4)-O-D-(α-2-sulphaminoglucosamine)-(1-3)-L-idonic acid]
Relative catalytic efficiency* ([2]; 37°, pH (optimum)): 6927 | Km [2, 5]: 10.3 µM | kcat. (turnover number) [2, 5]: 52 mol/min per mol of enzyme | pH optimum of the enzyme for the substrate [2]: 5.5

O=S(=O)(O)N[C@H]1[C@@H](O[C@H]2[C@H](O)[C@@H](OS(=O)(=O)O)C(O)O[C@H]2CO)O[C@H](CO)[C@@H](O)[C@@H]1O (stereo partly drawn) [GlcNS-Ido2S, O-(α-2-sulphaminoglucosamine)-(1-4)-L-6-idose 2-sulphate]
Relative catalytic efficiency* ([2]; 37°, pH (optimum)): 36 | Km [2, 5]: 4.1 µM | kcat. (turnover number) [2, 5]: 0.11 mol/min per mol of enzyme | pH optimum of the enzyme for the substrate [2]: 5.5

O=C[C@H](O)[C@@H](O)[C@H](O[C@H]1O[C@H](CO)[C@@H](O)[C@H](O)[C@H]1NS(=O)(=O)O)[C@@H](O)C(=O)O [GlcNS-IdOA, O-(α-2-sulphaminoglucosamine)-(1-4)-O-L-iduronic acid]
Relative catalytic efficiency* ([2]; 37°, pH (optimum)): 359 | Km [2, 5]: 35 µM | kcat. (turnover number) [2, 5]: 9.19 mol/min per mol of enzyme | pH optimum of the enzyme for the substrate [2]: 5.5 | Relative catalytic efficiency* [2, 6]: 1477 | Km [2, 7]: 40.8 µM | kcat. (turnover number) [2, 7]: 44† mol/min per mol of enzyme

O-(α-L-idopyranosyluronic acid 2-sulfate)-(1-3)-2,5-anhydro-D-talitol 4-sulfate [IdoA2S-anT4S]
pH optimum [4]: 5.0 | Km [4, 9]: 0.7 µM | kcat. (turnover no.) [4, 9]: 507 mol/min per mol of enzyme | Relative catalytic efficiency [4, 9]: 86.2 | Km [4, 10]: 1.1 µM | kcat. (turnover no.) [4, 10]: 270 mol/min per mol of enzyme | Relative catalytic efficiency [4, 10]: 29.3

O=C(O)[C@@H]1O[C@@H](O[C@H]2[C@H](O)[C@@H](CO)O[C@@H]2COS(=O)(=O)O)[C@H](OS(=O)(=O)O)[C@@H](O)[C@@H]1O [IdoA2S-anM6S, L-O-(α-iduronic acid 2-sulphate)-(1-4)-D-β-2,5-anhydro-mannitol 6-sulphate]
pH optimum [4]: 4.0 | Km [4, 9]: 4 µM | kcat. (turnover no.) [4, 9]: 2114 mol/min per mol of enzyme | Relative catalytic efficiency [4, 9]: 63.0 | increase in binding affinity (Km) ([4]; compared with IdoA2S-anM): 5 fold | increase in turnover (Kcat) ([4]; compared with IdoA2S-anM): 13 fold | increase in catalytic activity ([4]; compared with IdoA2S-anM (addition of a 6-sulfate ester group)): 63 fold | Km [4, 10]: 2.5 µM | kcat. (turnover no.) [4, 10]: 905 mol/min per mol of enzyme | Relative catalytic efficiency [4, 10]: 43.1

O=S(=O)([O-])[O-].[Na+].[Na+] [sodium sulfate]
effect of salt on activity of the enzyme against the substrates [4]: inhibitory

[Cl-].[Na+] [sodium chloride]
effect of salt on activity of the enzyme against the substrates [4]: inhibitory
